Where a name gives a salt, the structure may show the parent alone.
Molecular target: T1, full-length USP7 (Homo sapiens, UniProt Q93009)
T1 construct: A 45 μl reaction volume containing full-length USP7 (0.5-1.0 nM)
Experiment: Enzymatic assay to determine IC50 of USP7 inhibitors (Ubiquitin-Rhodamine 110 cleavage)
Type: biochemical
Conditions: full-length USP7 0.5-1.0 nM, 0.5 μM Ubiquitin-Rhodamine 110, 30-60 min at 25° C.
Procedure: Enzymatic Assay to Determine IC50 of USP7 Inhibitors
The IC50 is the concentration of an inhibitor where the measured enzyme activity is reduced by half. In the case of USP7 deubiquitinase, the IC50 of an USP7 inhibitor is the molar concentration of the compound that inhibits 50% of the activity observed in a USP7-mediated-ubiquitin-rhodamine cleavage assay. For the inhibitors disclosed herein, their potency was measured using the following method.
A 45 μl reaction volume containing full-length USP7 (0.5-1.0 nM) in 50 mM HEPES pH 7.5, 150 mM NaCl, 2 mM DTT, 1 mg/ml BSA and 0.05% Tween20 was assembled in wells of 96 well half area black flat bottom plates. Test compounds were first dissolved to 30 mM stocks in DMSO and subsequently introduced to enzyme 15 min after USP7 incubation with DTT at room temperature. The enzymatic reaction was started by adding 0.5 μM Ubiquitin-Rhodamine 110 (final concentration) and allowed to proceed for 30-60 min at 25° C., 250 RPM shaking before Rhodamine fluorescence (485 nm excitation/535 nm emission) was measured using Tecan Spark M10 plate reader. The IC50 values were determined by data fitting to variable slope model four-parameter dose-response curve using GraphPad 7.05.

T1 sequence (Q93009 whole entry): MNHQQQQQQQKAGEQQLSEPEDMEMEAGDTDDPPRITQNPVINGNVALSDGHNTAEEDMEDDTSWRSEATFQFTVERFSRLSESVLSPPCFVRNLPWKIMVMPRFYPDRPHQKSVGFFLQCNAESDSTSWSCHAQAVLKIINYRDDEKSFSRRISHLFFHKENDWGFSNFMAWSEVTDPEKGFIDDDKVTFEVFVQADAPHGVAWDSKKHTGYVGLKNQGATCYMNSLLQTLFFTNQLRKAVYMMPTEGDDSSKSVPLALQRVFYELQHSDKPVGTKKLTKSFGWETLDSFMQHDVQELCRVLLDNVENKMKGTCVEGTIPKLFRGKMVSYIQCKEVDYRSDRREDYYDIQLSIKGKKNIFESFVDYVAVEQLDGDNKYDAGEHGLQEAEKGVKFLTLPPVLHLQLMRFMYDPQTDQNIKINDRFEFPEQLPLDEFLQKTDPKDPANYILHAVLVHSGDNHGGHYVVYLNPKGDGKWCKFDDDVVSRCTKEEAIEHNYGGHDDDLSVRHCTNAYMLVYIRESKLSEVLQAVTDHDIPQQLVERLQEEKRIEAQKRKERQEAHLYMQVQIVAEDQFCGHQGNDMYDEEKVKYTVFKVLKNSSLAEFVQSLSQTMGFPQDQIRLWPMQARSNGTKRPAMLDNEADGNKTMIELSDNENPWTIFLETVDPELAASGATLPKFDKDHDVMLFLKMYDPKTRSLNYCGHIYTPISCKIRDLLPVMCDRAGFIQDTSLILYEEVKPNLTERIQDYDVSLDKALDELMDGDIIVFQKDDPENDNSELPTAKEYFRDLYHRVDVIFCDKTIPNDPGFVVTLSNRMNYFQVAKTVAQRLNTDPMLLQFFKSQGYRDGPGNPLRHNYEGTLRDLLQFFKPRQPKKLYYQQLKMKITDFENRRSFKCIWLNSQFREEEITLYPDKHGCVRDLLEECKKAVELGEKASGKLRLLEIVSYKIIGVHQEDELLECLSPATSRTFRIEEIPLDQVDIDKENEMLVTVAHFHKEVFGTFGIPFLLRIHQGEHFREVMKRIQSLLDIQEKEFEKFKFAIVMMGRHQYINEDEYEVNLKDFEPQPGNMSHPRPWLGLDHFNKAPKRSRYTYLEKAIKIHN

Row | Structure (SMILES) | IC50
1 | CC1(C)C2C(=O)N(Cc3cc4c(-c5cc(Cl)cc6c5N(C5CCNC5)CCC6)ncnn4c3)C(=O)C21 (single isomer, unassigned) [Example 67, 3-((4-(6-chloro-1-(pyrrolidin-3-yl)-1,2,3,4-tetrahydroquinolin-8-yl)pyrrolo[2,1-f][1,2,4]triazin-6-yl)methyl)-6,6-dimethyl-3-azabicyclo[3.1.0]hexane-2,4-dione hydrochloride] | < 500 nM
2 | Cl.[2H]C([2H])([2H])n1ccc(=O)n(Cc2cc3c(-c4cc(Cl)cc5ccn(CC6(F)CCNCC6)c45)ncnn3c2)c1=O [Example 131, 3-((4-(5-chloro-1-((4-fluoropiperidin-4-yl)methyl)-1H-indol-7-yl)pyrrolo[2,1-f][1,2,4]triazin-6-yl)methyl)-1-(methyl-d3)pyrimidine-2,4(1H,3H)-dione hydrochloride] | < 500 nM
3 | Cc1cc(Cl)cc(-c2ncnn3cc(CN4C(=O)C5C(C4=O)C5(C)C)cc23)c1OCC1(C)CCNCC1 (stereo not drawn) [Example 58, 3-((4-(5-chloro-3-methyl-2-((4-methylpiperidin-4-yl)methoxy)phenyl)pyrrolo[2,1-f][1,2,4]triazin-6-yl)methyl)-6,6-dimethyl-3-azabicyclo[3.1.0]hexane-2,4-dione hydrochloride] | < 500 nM
4 | [2H]C([2H])([2H])n1ccc(=O)n(Cc2cc3c(-c4cc(Cl)cc(C)c4C[C@@H]4CNCCO4)ncnn3c2)c1=O (single isomer, unassigned) [Example 105, hydrochloride] | < 500 nM
5 | Cn1ccc(=O)n(Cc2cc3c(-c4cc(Cl)cc5ccn(CC6(F)CCNCC6)c45)ncnn3c2)c1=O [Example 61, 3-((4-(5-chloro-1-((4-fluoropiperidin-4-yl)methyl)-1H-indol-7-yl)pyrrolo[2,1-f][1,2,4]triazin-6-yl)methyl)-1-methylpyrimidine-2,4(1H,3H)-dione hydrochloride] | < 500 nM
6 | Cc1cc(Cl)cc(-c2ncnn3cc(CN4C(=O)C5C(C4=O)C5(C)C)cc23)c1CC1CN[C@@H](C)CO1 (stereo partly drawn) [Example 49, 3-((4-(5-chloro-3-methyl-2-(((5S)-5-methylmorpholin-2-yl)methyl)phenyl)pyrrolo[2,1-f][1,2,4]triazin-6-yl)methyl)-6,6-dimethyl-3-azabicyclo[3.1.0]hexane-2,4-dione hydrochloride] | < 500 nM
7 | CCn1ccc(=O)n(Cc2cc3c(-c4cc(Cl)cc(C)c4C[C@@H]4CNCCO4)ncnn3c2)c1=O (single isomer, unassigned) [Example 104, hydrochloride] | < 500 nM
8 | Cc1cc(Cl)cc(-c2ncnn3cc(Cn4c(=O)ccn(CC(F)(F)F)c4=O)cc23)c1CC1CNC[C@H](C)O1 (stereo partly drawn) [Example 62, 3-((4-(5-chloro-3-methyl-2-(((6S)-6-methylmorpholin-2-yl)methyl)phenyl)pyrrolo[2,1-f][1,2,4]triazin-6-yl)methyl)-1-(2,2,2-trifluoroethyl)pyrimidine-2,4(1H,3H)-dione hydrochloride] | < 500 nM
9 | CCn1ccc(=O)n(Cc2cc3c(-c4cc(Cl)cc(C)c4CC4CNC[C@H](C)O4)ncnn3c2)c1=O (single isomer, unassigned) [Example 114, hydrochloride] | < 500 nM
10 | O=c1cc[nH]c(=O)n1Cc1cc2c(-c3cc(Cl)cc4ccn(CC5(F)CCNCC5)c34)ncnn2c1 [Example 130, 3-((4-(5-chloro-1-((4-fluoropiperidin-4-yl)methyl)-1H-indol-7-yl)pyrrolo[2,1-f][1,2,4]triazin-6-yl)methyl)pyrimidine-2,4(1H,3H)-dione hydrochloride] | < 500 nM
11 | Cc1cc(Cl)cc(-c2ncnn3cc(Cn4c(=O)c(C)cn(C)c4=O)cc23)c1CC1CNC[C@H](C)O1 (single isomer, unassigned) [Example 115, hydrochloride] | < 500 nM
12 | Cc1cc(Cl)cc(-c2ncnn3cc(Cn4c(=O)ccn(C(C)C)c4=O)cc23)c1CC1CN[C@@H](C)CO1 (single isomer, unassigned) [Example 113, hydrochloride] | < 500 nM
13 | Cc1cc(Cl)cc(-c2ncnn3cc(CN4C(=O)C5C(C4=O)C5(C)C)cc23)c1O[C@@H]1CNC[C@@H]1F (stereo partly drawn) [Example 14, 3-((4-(5-chloro-2-(((3R,4S)-4-fluoropyrrolidin-3-yl)oxy)-3-methylphenyl)pyrrolo[2,1-f][1,2,4]triazin-6-yl)methyl)-6,6-dimethyl-3-azabicyclo[3.1.0]hexane-2,4-dione hydrochloride] | < 500 nM

Second part, the compound after the results:

Row | IC50 | Structure (SMILES)
14 | < 500 nM | Cc1cc(Cl)cc(-c2ncnn3cc(CN4C(=O)C5C(C4=O)C5(C)C)cc23)c1C[C@@H]1CNCCO1 (stereo partly drawn) [Example 2, 3-((4-(5-chloro-3-methyl-2-(((R)-morpholin-2-yl)methyl)phenyl)pyrrolo[2,1-f][1,2,4]triazin-6-yl)methyl)-6,6-dimethyl-3-azabicyclo[3.1.0]hexane-2,4-dione hydrochloride]
15 | < 500 nM | CC1(C)C2C(=O)N(Cc3cc4c(-c5cc(C(F)(F)F)cc6ccn(C[C@@H]7CNCCO7)c56)ncnn4c3)C(=O)C21 (stereo partly drawn) [Example 35, 6,6-dimethyl-3-((4-(1-(((S)-morpholin-2-yl)methyl)-5-(trifluoromethyl)-1H-indol-7-yl)pyrrolo[2,1-f][1,2,4]triazin-6-yl)methyl)-3-azabicyclo[3.1.0]hexane-2,4-dione 2,2,2-trifluoroacetate]
16 | < 500 nM | CC1(C)C2C(=O)N(Cc3cc4c(-c5cc(Cl)cc6c(F)nn(C[C@@H]7CNCCO7)c56)ncnn4c3)C(=O)C21 (stereo partly drawn) [Example 45, 3-((4-(5-chloro-3-fluoro-1-(((S)-morpholin-2-yl)methyl)-1H-indazol-7-yl)pyrrolo[2,1-f][1,2,4]triazin-6-yl)methyl)-6,6-dimethyl-3-azabicyclo[3.1.0]hexane-2,4-dione hydrochloride]
17 | < 500 nM | CC1(C)C2C(=O)N(Cc3cc4c(-c5cc(Cl)cc6ccn(C[C@@H]7CNCCO7)c56)ncnn4c3)C(=O)C21 (single isomer, unassigned) [Example 30, dihydrochloride]
18 | < 500 nM | C[C@@H]1CN(C2CCNC2)c2c(cc(Cl)cc2-c2ncnn3cc(CN4C(=O)C5C(C4=O)C5(C)C)cc23)O1 (stereo partly drawn) [Example 93, 3-((4-((2R)-7-chloro-2-methyl-4-(pyrrolidin-3-yl)-3,4-dihydro-2H-benzo[b][1,4]oxazin-5-yl)pyrrolo[2,1-f][1,2,4]triazin-6-yl)methyl)-6,6-dimethyl-3-azabicyclo[3.1.0]hexane-2,4-dione hydrochloride]
19 | < 500 nM | CC1(C)C2C(=O)N(Cc3cc4c(-c5cc(Cl)cc6ccn(CC7CNCCO7)c56)ncnn4c3)C(=O)C21 (stereo not drawn) [Example 24, 3-((4-(5-chloro-1-(morpholin-2-ylmethyl)-1H-indol-7-yl)pyrrolo[2,1-f][1,2,4]triazin-6-yl)methyl)-6,6-dimethyl-3-azabicyclo[3.1.0]hexane-2,4-dione dihydrochloride]
20 | < 500 nM | CC1(C)C2C(=O)N(Cc3cc4c(-c5cc([N+](=O)[O-])cc6ccn(C[C@@H]7CNCCO7)c56)ncnn4c3)C(=O)C21 (stereo partly drawn) [Example 32, 6,6-dimethyl-3-((4-(1-(((S)-morpholin-2-yl)methyl)-5-nitro-1H-indol-7-yl)pyrrolo[2,1-f][1,2,4]triazin-6-yl)methyl)-3-azabicyclo[3.1.0]hexane-2,4-dione 2,2,2-trifluoroacetate]
21 | < 500 nM | Cc1cc(Cl)cc(-c2ncnn3cc(CN4C(=O)C5C(C4=O)C5(C)C)cc23)c1CC1CNCC2(CC2)O1 (racemic) [Example 46, 3-((4-(2-((4-oxa-7-azaspiro[2.5]octan-5-yl)methyl)-5-chloro-3-methylphenyl)pyrrolo[2,1-f][1,2,4]triazin-6-yl)methyl)-6,6-dimethyl-3-azabicyclo[3.1.0]hexane-2,4-dione hydrochloride]

— patent US20240150362A1, “Substituted Pyrrolotriazines” (Molecure S.A., priority 2022, published 2024)
